From patent US20250042889A1, “3CLPRO PROTEASE INHIBITOR” (SHANGHAI QILU PHARMACEUTICAL RESEARCH AND DEVELOPMENT …, priority 2021, published 2025) come the findings set out here.

The conditions of data set [1]: male, CD1, mouse, in vivo, po, 10 mg/kg.
Data set [2] is described as follows: in vivo. Particulars: male, CD1, mouse; for AUC / Vd / clearance / Cmax: in vivo; for half-life: plasma.
Data set [3] addresses SARS-COV-2 3CLpro/Mpro protease (Severe acute respiratory syndrome coronavirus 2 (2019-nCoV) (SARS-CoV-2), UniProt P0DTD1). As to the kind of experiment: Inhibitory effect on SARS-COV-2 3CLpro/Mpro protease by fluorescence resonance energy transfer. The data set is classed as biochemical. The following applies: activity intervals A-D, read-out: IC50 (nM), Inhibition on SARS-CoV-2 3CLpro/Mpro protease.

Data set [4] is described as follows: Pharmacokinetics in vivo experiment in cynomolgus macaques. The following applies: male, cynomolgus monkey, 10 mg/kg; for AUC / Cmax / Tmax: in vivo, po. How it is done:
• Basic information of animals • Species: cynomolgus macaque • Grade: conventional grade • Quantity: 18 cynomolgus macaques (male) were used in the drug administration experiment. • Weight: about 2.5 to 4.5 kg • Age: 3 to 5 years old • Source: Huazhen Animal Farm, Conghua City (General Partnership)
There are 9 male cynomolgus macaques, 3 cynomolgus macaques/group, 3 groups in total. The animals were fasted for 12 hours before administration, and the test solution was administered by gavage (10 mg/kg), and the administration volume was 2.5 mL/kg.
The blood was placed on wet ice, and centrifuged at 1700 g at 4° C. for 10 min within 1.5 h after collection. After centrifugation, the plasma was taken and added into a detection tube. Plasma samples can be stored in a refrigerator below-20° C. within 2 hours after centrifugation.
WinNonlin 8.1.0.3530 was used to calculate pharmacokinetic parameters.

Molecule `CNc1cncc(C(=O)N2CCC[C@@H](Nc3c(C(=O)N4CCCC(F)(F)C4)cc(Br)cc3[N+](=O)[O-])C2)c1` [Example 36, (R)-(5-bromo-2-((1-(5-(methylamino)nicotinoyl)piperidin-3-yl)amino)-3-nitrophenyl)(3,3-difluoropiperidin-1-yl)methanone] had a F in data set [1] of 29.7%. Further, in data set [2] (iv, 1 mg/kg), the area under the curve (AUC) is 92 ng·h/mL, the volume of distribution (Vd) stood at 1.7 L/kg, the clearance came out at 11.2 mL/min/kg and the half-life is 8.16 min. In data set [2] (po, 10 mg/kg), this molecule had an area under the curve (AUC) of 273 ng·h/mL and a Cmax of 365 ng/mL. Besides, in data set [3], the IC50 was in the range of 10 to 50 nM.
The molecule `CNc1cncc(C(=O)N2C[C@H](Nc3c(C(=O)N4C[C@@H](C)O[C@@H](C)C4)cc(Br)cc3[N+](=O)[O-])[C@@H](OC)C2)c1` [Example 321] registered a F in data set [1] of 84.7%. In data set [2] (iv, 1 mg/kg), this molecule gave an AUC of 153 ng·h/mL, a Vd of 7.1 L/kg, a clearance of 6.2 mL/min/kg and a half-life of 96 min. In data set [2] (po, 10 mg/kg), this molecule had an area under the curve (AUC) of 1350 ng·h/mL, a Cmax of 1640 ng/mL and a half-life of 144 min. Besides, in data set [3], the IC50 is 10 to 50 nM. In data set [4], the area under the curve (AUC) amounted to 994 ng·h/mL, the peak level (Cmax) was 699 ng/mL and the time of peak concentration (Tmax) was 70.2 min.
On to `CNc1cncc(C(=O)N2CCC[C@@H](Nc3c(C(=O)N4CCO[C@H](C)C4)cc(Br)cc3[N+](=O)[O-])C2)c1` [Example 35], for which, in data set [1], the F is 60%. Moreover, in data set [2] (iv, 1 mg/kg), the exposure (AUC) was 112 ng·h/mL, the Vd was 1.28 L/kg, the clearance amounted to 9.12 mL/min/kg and the half-life is 8.1 min. For the same molecule, in data set [2] (po, 10 mg/kg), the AUC came out at 668 ng·h/mL and the Cmax came out at 1020 ng/mL. Besides, the IC50 in data set [3] was in the range of 10 to 50 nM.
`CNc1cncc(C(=O)N2C[C@H](Nc3c(C(=O)N4C[C@@H](C)O[C@@H](C)C4)cc(Br)cc3[N+](=O)[O-])C[C@@H](OC)C2)c1` [Example 422]: the F in data set [1] is 62.6%. In data set [2] (iv, 1 mg/kg), this molecule gave an exposure (AUC) of 102 ng·h/mL, a volume of distribution (Vd) of 1.32 L/kg, a clearance of 9.82 mL/min/kg and a half-life of 6.36 min. In data set [2] (po, 10 mg/kg), this molecule had an AUC of 628 ng·h/mL, a peak concentration (Cmax) of 725 ng/mL and a half-life of 19.2 min. Besides, the IC50 in data set [3] is 50 to 100 nM.
Molecule `CNc1cncc(C(=O)N2CCC[C@@H](Nc3c(C(=O)N4CCCCC4)cc(Br)cc3[N+](=O)[O-])C2)c1` [Example 31, (R)-(5-bromo-2-((1-(5-(methylamino)nicotinoyl)piperidin-3-yl)amino)-3-nitrophenyl)(piperidin-1-yl)methanone] had a F in data set [1] of 42.1%. Moreover, in data set [2] (iv, 1 mg/kg), the AUC amounted to 88 ng·h/mL, the volume of distribution (Vd) was 1.56 L/kg and the clearance amounted to 11.6 mL/min/kg. In data set [2] (po, 10 mg/kg), this molecule had an AUC of 369 ng·h/mL, a Cmax of 401 ng/mL and a half-life of 15 min. Further, in data set [3], the IC50 was in the range of 10 to 50 nM. In data set [4], the AUC is 454 ng·h/mL, the concentration peaked (Cmax) at 232 ng/mL and the time to peak (Tmax) stood at 79.8 min. Also, the half-life in data set [4] (plasma, cynomolgus macaque, oral administration) is 29.4 min.
In turn, `CNc1cncc(C(=O)N2CCC[C@@H](Nc3c(C(=O)N4CCOC(F)(F)C4)cc(Br)cc3[N+](=O)[O-])C2)c1` [Example 295] showed a F in data set [1] of 36.3%. Moreover, in data set [2] (iv, 1 mg/kg), the AUC stood at 136 ng·h/mL, the Vd is 1.06 L/kg, the clearance was found to be 7.4 mL/min/kg and the half-life is 7.62 min. Also, in data set [2] (po, 10 mg/kg), the AUC stood at 494 ng·h/mL, the Cmax came to 697 ng/mL and the half-life is 11.6 min. The IC50 in data set [3] is 10 to 50 nM.
Consider `CNc1cncc(C(=O)N2C[C@H](Nc3c(C(=O)N4C[C@@H](C)O[C@@H](C)C4)cc(Br)cc3[N+](=O)[O-])C[C@H]2C(=O)NCc2ccnc(C(F)(F)F)n2)c1` [Example 450, (2S,4R)-4-((4-bromo-2-((2R,6S)-2,6-dimethylmorpholin-4-carbonyl)-6-nitrophenyl)amino)-1-(5-(methylamino)nicotinoyl)-N-((2-(trifluoromethyl)pyrimidin-4-yl)methyl) pyrrolidine-2-formamide], for which, in data set [3], the IC50 was 10 to 50 nM.
With `C[C@@H]1CN(C(=O)c2cc(Br)cc([N+](=O)[O-])c2N[C@@H]2CCCN(C(=O)[C@H]3CNCC(F)(F)C3)C2)CCO1` [Example 329], the IC50 in data set [3] lay in the range of 10 to 50 nM.
Turning to `CNc1cncc(C(=O)N2C[C@H](Nc3c(C(=O)N4CCN(CCOC)CC4)cc(Br)cc3[N+](=O)[O-])C(C)(C)C2)c1` [Example 191], the IC50 in data set [3] was in the range of 10 to 50 nM.
Same read-out and setting: then `CNc1cncc(C(=O)N2CCC[C@@H](Nc3c(C(=O)N4CCO[C@H](C(F)(F)F)C4)cc(Br)cc3[N+](=O)[O-])C2)c1` [Example 286], with 10 to 50 nM; and `CNc1cncc(C(=O)N2CCC[C@@H](Nc3c(C(=O)N4CCO[C@@H](C(F)(F)F)C4)cc(Br)cc3[N+](=O)[O-])C2)c1` [Example 288], with 10 to 50 nM.
The same measure, in the same setting: then `Cc1cc(C(=O)N2CC(Nc3c(C(=O)N4CCN(CC(F)(F)F)CC4)cc(Br)cc3[N+](=O)[O-])C(F)(F)C2)cc(=O)[nH]1` (stereo not shown) [Example 157], with 50 to 100 nM.
Regarding `CC(=O)Nc1cncc(C(=O)N2CCC[C@@H](Nc3c(C(=O)N4CCCCC4)cc(Br)cc3[N+](=O)[O-])C2)c1` [Example 216], in data set [3], the IC50 lay within 10 to 50 nM.
Consider `CNc1cncc(C(=O)N2C[C@H](Nc3c(C(=O)N4C[C@@H](C)O[C@@H](C)C4)cc(Br)cc3[N+](=O)[O-])C[C@H]2C(=O)N[C@H]2CCOC2)c1` [Example 402], for which the IC50 in data set [3] was 50 to 100 nM.
For `Cc1cc(C(=O)N2CC(Nc3c(C(=O)N4CCCCC4)cc(Br)cc3[N+](=O)[O-])C(F)(F)C2)cc(=O)[nH]1` (stereo not shown) [Example 101], the IC50 in data set [3] is 50 to 100 nM.
For the molecule `O=C(c1cc(Br)cc([N+](=O)[O-])c1N[C@@H]1CCCN(C(=O)[C@H]2CNCC(F)(F)C2)C1)N1CCCCC1` [Example 320], the F in data set [1] is 27.7%. In data set [2] (iv, 1 mg/kg), this molecule had an AUC of 156 ng·h/mL, a Vd of 2.1 L/kg, a clearance of 6.3 mL/min/kg and a half-life of 21.6 min. Further, in data set [2] (po, 10 mg/kg), the AUC is 280 ng·h/mL, the highest concentration (Cmax) is 825 ng/mL and the half-life is 26.2 min. In data set [3], the IC50 was in the range of 10 to 50 nM.
Take `CNc1cncc(C(=O)N2CCC[C@@H](Nc3c(C(=O)N4C[C@H]5C[C@@H]4CO5)cc(Br)cc3[N+](=O)[O-])C2)c1` [Example 290]: in data set [3], the IC50 was 10 to 50 nM.
On the same count and under the same terms, the same measure for `CNc1cncc(C(=O)N2C[C@H](Nc3c(C(=O)N4C[C@@H](C)O[C@@H](C)C4)cc(Br)cc3[N+](=O)[O-])C[C@H]2C(=O)Nc2cc(C(F)(F)F)ncn2)c1` [Example 436, (2S,4R)-4-((4-bromo-2-((2R,6S)-2,6-dimethylmorpholin-4-carbonyl)-6-nitrophenyl)amino)-1-(5-(methylamino)nicotinoyl)-N-(6-(trifluoromethyl)pyrimidin-4-yl) pyrrolidine-2-formamide]: 50 to 100 nM.
As to `CNc1cncc(C(=O)N2C[C@H](Nc3c(C(=O)N4C[C@@H](C)O[C@@H](C)C4)cc(Br)cc3[N+](=O)[O-])C[C@H]2C(=O)Nc2ccc3c(cnn3C)c2Cl)c1` [Example 435], the IC50 in data set [3] is 50 to 100 nM.
Regarding `CNc1cncc(C(=O)N2CCC[C@@H](Nc3c(C(=O)N4CCc5ncsc5C4)cc(Br)cc3[N+](=O)[O-])C2)c1` [Example 315], in data set [3], the IC50 was in the range of 10 to 50 nM.
On to `O=C(c1cc(Br)cc([N+](=O)[O-])c1N[C@@H]1CCN(C(=O)c2cncc3cc(Cl)ccc23)C1)N1CC2CC2C1` (stereo partly shown) [Example 51], for which the IC50 in data set [3] is 10 to 50 nM.
As to `O=C(N[C@H]1CCCC[C@H]1Nc1c(C(=O)N2C[C@@H](O)C[C@@H](NC(=O)C(F)(F)F)C2)cc(Br)cc1C(F)(F)F)c1cncc2cc(Cl)ccc12` [Example 207], the IC50 in data set [3] was in the range of 10 to 50 nM.
On to `CNc1cncc(C(=O)N2CCC[C@@H](Nc3c(C(=O)N4Cc5cnn(C)c5C4)cc(Br)cc3[N+](=O)[O-])C2)c1` [Example 284], for which the IC50 in data set [3] lay within 10 to 50 nM.
For the molecule `CNc1cncc(C(=O)N2CCC[C@@H](Nc3c(C(=O)N4Cc5cccnc5C4)cc(Br)cc3[N+](=O)[O-])C2)c1` [Example 271], the IC50 in data set [3] was 10 to 50 nM.
For `C[C@@H]1CN(C(=O)c2cc(Br)cc([N+](=O)[O-])c2N[C@@H]2CCCN(C(=O)[C@H]3CC(=O)Nc4ccccc43)C2)C[C@H](C)O1` [Example 274], in data set [3], the IC50 is less than 10 nM.
`O=C(N[C@H]1CCCC[C@H]1Nc1c(C(=O)N2CCOCC2)cc(Br)cc1[N+](=O)[O-])c1cc(=O)[nH]c2ccccc12` [Example 107]: in data set [3], the IC50 fell in the range of 10 to 50 nM.
`COCCN1CCN(C(=O)c2cc(Br)cc([N+](=O)[O-])c2N[C@H]2CN(C(=O)c3cncc(I)c3)CC2(F)F)CC1` [Example 208]: the IC50 in data set [3] was 10 to 50 nM.
On to `[2H]C1([2H])CN(C(=O)c2cc(Br)cc([N+](=O)[O-])c2N[C@@H]2CCCN(C(=O)c3cncc(NC)c3)C2)CC([2H])([2H])O1` [Example 353], for which, in data set [3], the IC50 was in the range of 10 to 50 nM.
The same measure, in the same setting: the same measure for `Cc1cc(C(=O)N2C[C@H](Nc3c(C(=O)NC4CCCCC4)cc(Br)cc3[N+](=O)[O-])C3(CC3)C2)cc(=O)[nH]1` [Example 299]: 10 to 50 nM; for `CNc1cncc(C(=O)N2C[C@H](Nc3c(C(=O)N4CC5CCC(C4)O5)cc(Br)cc3[N+](=O)[O-])[C@@H](OC)C2)c1` [Example 360]: 10 to 50 nM.
Same read-out and setting: then `O=C(c1cncc(I)c1)N1C[C@H](Nc2c(C(=O)N3CCC(F)(F)CC3)cc(Br)cc2[N+](=O)[O-])C(F)(F)C1` [Example 192], with 10 to 50 nM.

Usually AUC stands for concentration integrated over time. The low end stands for less exposure, the high end for more exposure. The Vd is a proportionality between amount in the body and measured concentration, not a real space. One may read the clearance as a measure of how efficiently the substance is removed, as volume per time. A low value points to a low capacity for elimination. A word on the Cmax: it is the peak of the concentration-time curve. In general, half-life refers to the time needed for the level to fall by half in the phase considered. A low value points to fast loss. Usually Tmax stands for the time from dosing to the highest level.
